Publication PMC12591484 (PLOS One, 2025)

Experiments:
Experiment in all cases: Effects of cysteine modification with pCMBS on Low/High GABA response ratio
Format in all cases: cell-based
[1] = target: T1, α1β3γ2I242C GABAA receptors (Homo sapiens, UniProt P14867+P18507+P28472, I281C); conditions: post- to pre-modification Low/High GABA response ratio
T1 construct: expressed in transfected cells; host or cells: Xenopus oocytes injected with capped mRNAs mixed 1α:1β:5γ
Procedure: (§1) The pCMBS exposure was calculated as concentration × time (e.g. 100 μM × 30 s = 3000 µM × s). […] The pCMBS exposures were varied to generate modification ratio vs. pCMBS exposure curves. Each oocyte was studied at a single pCMBS exposure condition. For each cysteine mutant, 5 oocytes were studied at 4 to 7 pCMBS exposure conditions. The modification ratio vs. pCMBS exposure curves were fit with mono-phasic or bi-phasic logistic equations similar to Eq 1, using non-linear least squares.

[2] = target: T2, α1S270Cβ3γ2L GABAA receptors (Homo sapiens, UniProt P14867+P18507+P28472, S297C)
T2 construct: expressed in transfected cells; host or cells: Xenopus oocytes injected with capped mRNA, 1α:1β:5γ
T2 sequence (P14867 28-456 S297C, one chain of several): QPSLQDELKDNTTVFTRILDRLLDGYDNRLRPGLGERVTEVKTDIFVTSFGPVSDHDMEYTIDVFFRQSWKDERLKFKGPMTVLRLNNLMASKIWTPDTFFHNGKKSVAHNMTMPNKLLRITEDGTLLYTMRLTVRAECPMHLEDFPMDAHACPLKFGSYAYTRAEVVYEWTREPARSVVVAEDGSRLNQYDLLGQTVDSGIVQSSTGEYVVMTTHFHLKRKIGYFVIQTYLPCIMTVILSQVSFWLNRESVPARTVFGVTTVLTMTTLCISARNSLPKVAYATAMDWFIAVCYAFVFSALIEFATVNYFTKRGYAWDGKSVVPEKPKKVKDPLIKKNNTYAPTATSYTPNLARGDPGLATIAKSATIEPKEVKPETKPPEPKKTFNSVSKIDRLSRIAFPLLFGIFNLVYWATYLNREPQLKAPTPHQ
T2 sequence (P18507 40-475, one chain of several): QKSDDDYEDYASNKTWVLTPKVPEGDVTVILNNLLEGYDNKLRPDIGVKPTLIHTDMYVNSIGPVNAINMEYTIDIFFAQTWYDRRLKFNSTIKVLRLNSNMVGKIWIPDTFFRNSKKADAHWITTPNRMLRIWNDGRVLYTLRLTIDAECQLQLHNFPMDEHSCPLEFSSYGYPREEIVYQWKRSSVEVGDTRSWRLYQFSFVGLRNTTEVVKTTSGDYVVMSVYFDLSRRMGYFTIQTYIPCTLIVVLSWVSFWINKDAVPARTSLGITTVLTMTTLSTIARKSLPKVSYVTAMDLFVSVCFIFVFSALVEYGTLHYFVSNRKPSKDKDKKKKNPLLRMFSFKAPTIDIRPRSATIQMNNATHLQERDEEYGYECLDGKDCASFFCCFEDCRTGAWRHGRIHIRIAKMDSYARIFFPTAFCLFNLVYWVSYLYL
Procedure: as §1

[3] = target: T3, α1β3γ2S301C GABAA receptors (Homo sapiens, UniProt P14867+P18507+P28472, S340C); conditions: post- to pre-modification Low/High GABA response ratio
T3 construct: expressed in transfected cells; host or cells: Xenopus oocytes injected with capped mRNAs mixed 1α:1β:5γ
T3 sequence (P14867 28-456): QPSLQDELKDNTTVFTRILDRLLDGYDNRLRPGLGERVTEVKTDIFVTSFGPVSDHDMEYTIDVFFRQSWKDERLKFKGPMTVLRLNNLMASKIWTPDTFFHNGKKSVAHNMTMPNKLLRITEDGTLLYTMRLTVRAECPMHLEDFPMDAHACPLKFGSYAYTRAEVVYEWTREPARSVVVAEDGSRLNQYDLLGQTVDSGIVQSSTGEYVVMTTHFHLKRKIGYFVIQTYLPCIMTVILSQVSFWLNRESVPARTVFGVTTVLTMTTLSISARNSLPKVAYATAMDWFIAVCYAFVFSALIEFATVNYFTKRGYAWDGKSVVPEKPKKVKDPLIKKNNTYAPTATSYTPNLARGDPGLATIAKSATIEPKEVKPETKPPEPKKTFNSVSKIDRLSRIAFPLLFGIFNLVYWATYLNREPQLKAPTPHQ
T3 sequence (P28472 26-473): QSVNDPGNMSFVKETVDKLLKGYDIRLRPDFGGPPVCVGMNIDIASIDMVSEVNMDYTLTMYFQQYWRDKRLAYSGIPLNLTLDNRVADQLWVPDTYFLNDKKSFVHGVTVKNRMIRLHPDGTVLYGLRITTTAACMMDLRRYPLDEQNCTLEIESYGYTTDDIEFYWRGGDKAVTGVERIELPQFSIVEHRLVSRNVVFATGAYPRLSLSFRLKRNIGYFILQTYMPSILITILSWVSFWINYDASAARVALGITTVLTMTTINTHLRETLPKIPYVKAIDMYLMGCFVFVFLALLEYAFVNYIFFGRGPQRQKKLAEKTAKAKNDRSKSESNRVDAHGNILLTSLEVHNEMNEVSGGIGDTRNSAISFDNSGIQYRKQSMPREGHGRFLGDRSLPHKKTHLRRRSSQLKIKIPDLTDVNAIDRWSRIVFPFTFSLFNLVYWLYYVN
T3 sequence (P18507 40-475 S340C): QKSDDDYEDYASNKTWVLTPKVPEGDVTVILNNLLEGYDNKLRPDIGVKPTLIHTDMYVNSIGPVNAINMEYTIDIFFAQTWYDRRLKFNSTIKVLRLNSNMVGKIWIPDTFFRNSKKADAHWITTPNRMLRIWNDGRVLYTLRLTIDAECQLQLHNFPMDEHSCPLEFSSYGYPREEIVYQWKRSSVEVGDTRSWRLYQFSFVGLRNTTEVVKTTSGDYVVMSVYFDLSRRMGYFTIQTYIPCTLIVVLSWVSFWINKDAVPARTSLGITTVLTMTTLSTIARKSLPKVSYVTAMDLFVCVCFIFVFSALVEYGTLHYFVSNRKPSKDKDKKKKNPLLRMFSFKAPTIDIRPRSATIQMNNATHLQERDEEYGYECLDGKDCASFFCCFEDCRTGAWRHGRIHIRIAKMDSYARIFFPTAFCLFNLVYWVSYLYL
Procedure: as §1

[4] = target: T4, α1A291Cβ3γ2L GABAA receptors (Homo sapiens, UniProt P14867+P18507+P28472, A318C)
T4 construct: expressed in transfected cells; host or cells: Xenopus oocytes injected with capped mRNA, 1α:1β:5γ
T4 sequence (P14867 28-456 A318C, one chain of several): as the sequence (P14867 28-456 S297C, one chain of several) above, with C270S, A291C counted along it
T4 sequence (P18507 40-475, one chain of several): as the sequence (P18507 40-475, one chain of several) above
Procedure: as §1

[5] = target: T5, α1β3L231Cγ2L GABAA receptors (Homo sapiens, UniProt P14867+P18507+P28472, L256C); conditions: post- to pre-modification Low/High GABA response ratio
T5 construct: expressed in transfected cells; host or cells: Xenopus oocytes injected with capped mRNA, 1α:1β:5γ
T5 sequence (P28472 26-473 L256C, one chain of several): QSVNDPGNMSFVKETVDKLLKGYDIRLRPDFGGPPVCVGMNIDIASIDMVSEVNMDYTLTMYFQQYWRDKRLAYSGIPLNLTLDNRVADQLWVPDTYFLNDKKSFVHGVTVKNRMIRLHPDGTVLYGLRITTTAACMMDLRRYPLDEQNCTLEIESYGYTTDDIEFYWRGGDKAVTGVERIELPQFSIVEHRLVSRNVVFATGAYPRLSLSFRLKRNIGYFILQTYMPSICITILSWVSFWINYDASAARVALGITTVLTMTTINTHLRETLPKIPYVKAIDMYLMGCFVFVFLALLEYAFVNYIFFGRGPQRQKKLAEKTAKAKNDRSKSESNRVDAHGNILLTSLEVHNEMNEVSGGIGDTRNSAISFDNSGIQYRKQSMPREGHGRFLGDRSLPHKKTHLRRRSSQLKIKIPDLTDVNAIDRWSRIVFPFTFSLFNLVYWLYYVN
T5 sequence (P18507 40-475, one chain of several): as the sequence (P18507 40-475, one chain of several) above
Procedure: as §1

[6] = target: T6, α1β3M286Cγ2L GABAA receptors (Homo sapiens, UniProt P14867+P18507+P28472, M311C); conditions: post- to pre-modification Low/High GABA response ratio
T6 construct: expressed in transfected cells; host or cells: Xenopus oocytes injected with capped mRNA, 1α:1β:5γ
T6 sequence (P28472 26-473 M311C, one chain of several): as the sequence (P28472 26-473 L256C, one chain of several) above, with C231L, M286C counted along it
T6 sequence (P18507 40-475, one chain of several): as the sequence (P18507 40-475, one chain of several) above
Procedure: as §1

[7] = target: T7, α1M236Cβ3γ2L GABAA receptors (Homo sapiens, UniProt P14867+P18507+P28472, M263C); conditions: post- to pre-modification Low/High GABA response ratio
T7 construct: expressed in transfected cells; host or cells: Xenopus oocytes injected with capped mRNA, 1α:1β:5γ
T7 sequence (P14867 28-456 M263C, one chain of several): as the sequence (P14867 28-456 S297C, one chain of several) above, with M236C, C270S counted along it
T7 sequence (P18507 40-475, one chain of several): as the sequence (P18507 40-475, one chain of several) above
Procedure: as §1

[8] = target: T8, α1β3γ2L246C GABAA receptors (Homo sapiens, UniProt P14867+P18507+P28472, L285C); conditions: post- to pre-modification Low/High GABA response ratio
T8 construct: expressed in transfected cells; host or cells: Xenopus oocytes injected with capped mRNAs mixed 1α:1β:5γ
T8 sequence (P18507 40-475 L285C, one chain of several): as the sequence (P18507 40-475, one chain of several) above, with L246C counted along it
Procedure: as §1

T1 sequence (P18507 40-475 I281C, one chain of several): as the sequence (P18507 40-475, one chain of several) above, with I242C counted along it

O=S(=O)([O-])c1cc[c]([Hg][Cl])cc1.[Na+] [pCMBS, para-chloromercuribenzenesulfonic acid sodium salt]
Maximal pCMBS Modification Ratio Mean ± SD [1]: 17 ± 4.9 | pCMBS exposure with maximum effect on modification ratio ([2]; α1S270C, biphasic effect of increasing pCMBS exposure): 300 µM x s | Maximal pCMBS Modification Ratio Mean ± SD ([2]; α1S270Cβ3γ2L, post- to pre-modification Low/High GABA response ratio, biphasic): 11.8 ± 0.77 | Maximal pCMBS Modification Ratio Mean ± SD [3]: 5.3 ± 0.23 | modification ratio, control modification, single oocyte example (Fig 2A) ([4]; 3 mM GABA + 10 µM pCMBS for 90 s): 4.0 | Maximal pCMBS Modification Ratio Mean ± SD ([4]; post- to pre-modification Low/High GABA response ratio): 4.7 ± 0.61 | Maximal pCMBS Modification Ratio Mean ± SD [5]: 13 ± 1.3 | Maximal pCMBS Modification Ratio Mean ± SD [6]: 9 ± 3.1 | Maximal pCMBS Modification Ratio Mean ± SD [7]: 13 ± 1.4 | Maximal pCMBS Modification Ratio Mean ± SD [8]: 5 ± 1.0
